{"source": "paper PMC12521546", "about": "(Nature Communications, 2025)", "key": {"CnAcs1 [1]": {"molecular_target": "T1, CnAcs1 (Cryptococcus neoformans, UniProt J9VFT1)", "T1 sequence (J9VFT1 1-680)": "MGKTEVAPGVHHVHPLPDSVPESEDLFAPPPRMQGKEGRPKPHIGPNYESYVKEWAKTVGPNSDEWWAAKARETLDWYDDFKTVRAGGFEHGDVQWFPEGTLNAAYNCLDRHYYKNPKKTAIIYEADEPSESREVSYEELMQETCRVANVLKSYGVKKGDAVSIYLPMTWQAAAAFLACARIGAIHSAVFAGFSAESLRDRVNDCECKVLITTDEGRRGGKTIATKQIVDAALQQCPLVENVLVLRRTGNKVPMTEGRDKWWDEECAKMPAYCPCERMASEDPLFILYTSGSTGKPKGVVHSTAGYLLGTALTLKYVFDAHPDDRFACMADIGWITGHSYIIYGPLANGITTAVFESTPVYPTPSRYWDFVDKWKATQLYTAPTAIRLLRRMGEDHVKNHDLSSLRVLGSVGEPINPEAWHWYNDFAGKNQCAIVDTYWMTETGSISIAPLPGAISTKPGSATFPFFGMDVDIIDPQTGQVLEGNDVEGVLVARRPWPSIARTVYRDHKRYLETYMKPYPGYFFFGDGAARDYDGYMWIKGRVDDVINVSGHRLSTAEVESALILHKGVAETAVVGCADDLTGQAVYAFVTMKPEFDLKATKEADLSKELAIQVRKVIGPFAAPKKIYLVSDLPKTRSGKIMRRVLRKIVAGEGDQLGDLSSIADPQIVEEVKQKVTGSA", "assay": "Acs coupled kinetic pyrophosphate", "assay_type": "biochemical"}, "[2]": {"test_system": "C. neoformans reference strain H99", "assay": "MIC, modified CLSI micro-broth dilution, H99", "assay_type": "cell-based, Cryptococcus neoformans"}, "PfAcAS": {"test_system": "PfAcAS", "details": "cited from earlier work"}, "CaAcs2 [3]": {"molecular_target": "T2, CaAcs2 (Candida albicans, UniProt Q8NJN3)", "T2 sequence (Q8NJN3 1-671)": "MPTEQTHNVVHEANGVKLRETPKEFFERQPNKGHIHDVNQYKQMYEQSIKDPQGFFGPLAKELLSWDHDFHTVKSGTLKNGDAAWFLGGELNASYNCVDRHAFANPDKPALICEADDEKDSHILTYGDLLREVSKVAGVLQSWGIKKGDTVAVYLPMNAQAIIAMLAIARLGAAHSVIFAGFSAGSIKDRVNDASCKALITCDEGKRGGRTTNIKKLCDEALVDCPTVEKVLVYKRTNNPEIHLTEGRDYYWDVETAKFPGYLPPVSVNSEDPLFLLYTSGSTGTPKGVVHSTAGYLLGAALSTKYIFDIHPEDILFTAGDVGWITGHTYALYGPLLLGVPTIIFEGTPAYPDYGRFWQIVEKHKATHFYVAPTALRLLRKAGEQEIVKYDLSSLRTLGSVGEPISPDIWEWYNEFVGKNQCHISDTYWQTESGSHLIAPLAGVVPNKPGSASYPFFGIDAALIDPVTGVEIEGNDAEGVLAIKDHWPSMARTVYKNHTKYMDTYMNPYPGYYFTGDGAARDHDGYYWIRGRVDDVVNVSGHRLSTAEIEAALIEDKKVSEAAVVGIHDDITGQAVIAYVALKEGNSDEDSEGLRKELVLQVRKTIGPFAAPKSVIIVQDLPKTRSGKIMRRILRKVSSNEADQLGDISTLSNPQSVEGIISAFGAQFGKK", "assay": "Acs coupled kinetic assay, CaAcs2", "assay_type": "biochemical"}, "human ACSS2": {"molecular_target": "human ACSS2 (Homo sapiens, UniProt Q9NR19)", "sequence (Q9NR19 whole entry)": "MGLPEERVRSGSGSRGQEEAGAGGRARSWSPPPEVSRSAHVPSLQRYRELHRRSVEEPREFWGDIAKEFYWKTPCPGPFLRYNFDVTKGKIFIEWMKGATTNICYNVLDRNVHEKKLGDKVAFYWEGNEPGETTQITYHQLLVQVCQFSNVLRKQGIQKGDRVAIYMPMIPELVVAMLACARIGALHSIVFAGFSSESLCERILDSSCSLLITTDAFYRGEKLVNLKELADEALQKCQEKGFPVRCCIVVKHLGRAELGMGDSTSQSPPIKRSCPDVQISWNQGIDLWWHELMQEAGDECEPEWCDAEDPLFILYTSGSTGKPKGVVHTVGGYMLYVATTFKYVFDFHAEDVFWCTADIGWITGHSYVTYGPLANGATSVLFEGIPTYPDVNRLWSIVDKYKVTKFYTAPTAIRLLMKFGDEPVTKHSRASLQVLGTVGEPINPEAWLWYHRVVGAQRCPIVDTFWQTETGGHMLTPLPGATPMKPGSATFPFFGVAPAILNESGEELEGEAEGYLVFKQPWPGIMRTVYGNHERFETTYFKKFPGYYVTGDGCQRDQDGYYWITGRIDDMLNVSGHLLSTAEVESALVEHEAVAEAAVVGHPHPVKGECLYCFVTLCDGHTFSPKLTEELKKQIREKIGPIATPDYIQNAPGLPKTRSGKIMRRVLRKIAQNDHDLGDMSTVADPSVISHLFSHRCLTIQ", "assay": "Acs coupled kinetic assay, human ACSS2", "assay_type": "biochemical"}, "Ca^CnAcs2": {"molecular_target": "T3, Ca^CnAcs2 (Candida albicans, UniProt Q8NJN3, A319M/F357Y/G320A/Q430M/V371T)", "T3 sequence (Q8NJN3 with tags, fused parts or gaps A319M/G320A/F357Y/V371T/V388A/Q430M)": "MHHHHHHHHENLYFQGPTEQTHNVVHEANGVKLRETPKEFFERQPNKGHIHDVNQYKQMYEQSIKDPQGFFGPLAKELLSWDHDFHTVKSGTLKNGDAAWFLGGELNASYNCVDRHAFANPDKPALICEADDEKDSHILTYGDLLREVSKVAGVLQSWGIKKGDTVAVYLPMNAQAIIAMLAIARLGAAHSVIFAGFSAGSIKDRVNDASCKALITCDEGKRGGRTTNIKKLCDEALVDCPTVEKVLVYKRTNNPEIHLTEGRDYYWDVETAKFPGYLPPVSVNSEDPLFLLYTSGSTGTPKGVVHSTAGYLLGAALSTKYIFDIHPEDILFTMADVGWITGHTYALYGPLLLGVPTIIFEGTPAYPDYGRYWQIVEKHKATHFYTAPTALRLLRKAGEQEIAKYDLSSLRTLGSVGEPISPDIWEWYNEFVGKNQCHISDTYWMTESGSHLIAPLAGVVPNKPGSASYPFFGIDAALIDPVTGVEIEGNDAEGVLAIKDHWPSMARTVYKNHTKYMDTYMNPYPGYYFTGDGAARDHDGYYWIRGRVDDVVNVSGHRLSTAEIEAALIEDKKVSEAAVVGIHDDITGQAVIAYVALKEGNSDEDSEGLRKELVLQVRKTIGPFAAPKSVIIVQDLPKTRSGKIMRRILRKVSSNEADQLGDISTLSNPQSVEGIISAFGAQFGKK", "assay": "Acs assay, Ca^CnAcs2 mutant enzyme", "details": "for IC50: read-out: IC50 Ca^CnAcs2"}, "CnAcs1 [4]": {"molecular_target": "T1, CnAcs1", "details": "cited from earlier work; for IC50: read-out: IC50 CnAcs1, alkyl-AMP esters"}, "CaAcs2 [5]": {"molecular_target": "T2, CaAcs2", "details": "read-out: IC50 CaAcs2; cited from earlier work"}}, "note": "Entries after “also recorded” stand apart in the source; their conditions may differ. Read-outs that look alike come from different tables or passages of the source.", "data": [{"smiles": "CCN(CC)S(=O)(=O)c1ccc(Cl)c(C(=O)Nc2ccc3nc(C)sc3c2)c1", "note": "[MMV019721]", "values": [{"measurement": "inhibition of CnAcs1 (in words)", "setting": "CnAcs1 [1]", "result": "did not inhibit CnAcs1 below its solubility limit; also recorded: does not inhibit CnAcs1 at the maximum soluble concentration; also recorded: does not significantly inhibit CnAcs1"}, {"measurement": "antifungal activity against C. neoformans (in words)", "setting": "[2]", "result": "no activity"}, {"measurement": "kinetic mechanism of PfAcAS inhibition", "setting": "PfAcAS", "result": "competitive with ATP and uncompetitive with CoA"}]}, {"smiles": "O=C(NNC(=O)c1csnn1)c1ccc(Cl)cc1", "note": "[MMV084978]", "values": [{"measurement": "fold higher IC50 toward CnAcs1 than PfAcAS", "setting": "CnAcs1 [1]", "result": "~ 8 fold"}, {"measurement": "kinetic mechanism of CnAcs1 inhibition", "setting": "CnAcs1 [1]", "result": "uncompetitive"}, {"measurement": "kinetic mechanism of CnAcs1 inhibition", "setting": "CnAcs1 [1]; listed as MMV089478", "result": "uncompetitive inhibitor of CnAcs1"}, {"measurement": "fold higher IC50 toward CnAcs1 than PfAcAS", "setting": "CnAcs1 [1]; listed as MMV0894978", "result": 8, "unit": "fold"}, {"measurement": "Ki", "setting": "CnAcs1 [1]; read-out: Ki with CnAcs1, uncompetitive model, CoA varied", "result": 4.1, "unit": "µM"}, {"measurement": "inhibition of CaAcs2 (in words)", "setting": "CaAcs2 [3]", "result": "did not inhibit CaAcs2"}, {"measurement": "fold higher IC50 toward ACSS2 than PfAcAS", "setting": "human ACSS2", "result": 50, "unit": "fold"}, {"measurement": "MIC toward C. neoformans", "setting": "[2]; medium not stated", "result": 64, "unit": "µg/mL"}, {"measurement": "kinetic mechanism of PfAcAS inhibition", "setting": "PfAcAS", "result": "uncompetitive inhibitor with respect to ATP and CoA"}, {"measurement": "IC50", "setting": "PfAcAS; read-out: IC50 PfAcAS", "result": 0.37, "unit": "µM"}, {"measurement": "maximum inhibition of Ca^CnAcs2", "setting": "Ca^CnAcs2", "result": 93, "unit": "%"}, {"measurement": "IC50", "setting": "Ca^CnAcs2", "result": "88 ± 21", "unit": "µM"}]}, {"smiles": "COC(=O)c1cccc(N2N=C(C)C(C(=O)Nc3cccc(C(C)(F)F)c3)C2=O)c1", "note": "(stereo not drawn) [MTB-9655]", "values": [{"measurement": "inhibition of CnAcs1 (in words)", "setting": "CnAcs1 [1]", "result": "no activity against CnAcs1"}]}, {"smiles": "CCCCOP(=O)(O)OCC1OC(n2cnc3c(N)ncnc32)C(O)C1O", "note": "(stereo not drawn) [butyl]", "values": [{"measurement": "decrease in potency relative to ethyl-AMP", "setting": "CnAcs1 [4]", "result": "> 50", "unit": "fold"}]}, {"smiles": "CN(Cc1cccc(-c2ccc(F)cc2)c1)Cc1cc(C2CC2)on1", "note": "[compound 3]", "values": [{"measurement": "inhibition of CnAcs1 (in words)", "setting": "CnAcs1 [1]", "result": "no activity against CnAcs1"}]}, {"smiles": "CC(C)c1cc(CN(C)C(=O)c2cccc(-c3ccc(F)cc3)c2)no1", "note": "[compound 5]", "values": [{"measurement": "inhibition of CnAcs1 (in words)", "setting": "CnAcs1 [1]", "result": "eliminated inhibition entirely"}]}, {"smiles": "Cc1cc(CN(C)C(=O)c2cccc(-c3ccc(F)cc3)c2)no1", "note": "[compound 6]", "values": [{"measurement": "inhibition of CnAcs1 (in words)", "setting": "CnAcs1 [1]", "result": "much less potent than 2"}, {"measurement": "inhibition at 100 µM", "setting": "CnAcs1 [1]; read-out: inhibition of CnAcs1", "result": 50, "unit": "%"}]}, {"smiles": "CN(Cc1ccon1)C(=O)c1cccc(-c2ccc(F)cc2)c1", "note": "[compound 7]", "values": [{"measurement": "inhibition of CnAcs1 (in words)", "setting": "CnAcs1 [1]", "result": "completely inactive"}]}, {"smiles": "O=C(NCc1cc(C2CC2)on1)c1cccc(-c2ccc3c(c2)CCO3)c1", "note": "[compound 8]", "values": [{"measurement": "inhibition of CnAcs1 (in words)", "setting": "CnAcs1 [1]", "result": "no activity against CnAcs1"}]}, {"smiles": "COc1ccc(-c2cccc(C(=O)N(C)Cc3cc(C4CC4)on3)c2)cc1", "note": "[compound 9]", "values": [{"measurement": "inhibition of CnAcs1 (in words)", "setting": "CnAcs1 [1]", "result": "activity that was similar to 1 and more potent than 2"}]}, {"smiles": "COc1ccccc1-c1cccc(C(=O)N(C)Cc2cc(C3CC3)on2)c1", "note": "[compound 10]", "values": [{"measurement": "inhibition of CnAcs1 (in words)", "setting": "CnAcs1 [1]", "result": "eliminated activity"}]}, {"smiles": "CN(Cc1cc(C2CC2)on1)C(=O)c1cccc(-c2ccccc2)c1", "note": "[compound 12]", "values": [{"measurement": "inhibition of CnAcs1 (in words)", "setting": "CnAcs1 [1]", "result": "no activity"}]}, {"smiles": "Nc1ncnc2c1ncn2[C@@H]1O[C@H](COP(=O)(O)OC2CC2)[C@@H](O)[C@H]1O", "note": "[cyclopropyl-AMP ester]", "values": [{"measurement": "IC50", "setting": "CnAcs1 [4]", "result": 9, "unit": "µM"}]}, {"smiles": "CCOP(=O)(O)OC[C@H]1O[C@@H](n2cnc3c(N)ncnc32)[C@H](O)[C@@H]1O", "note": "[ethyl-AMP]", "values": [{"measurement": "IC50", "setting": "CnAcs1 [4]", "result": 8, "unit": "µM"}, {"measurement": "IC50", "setting": "CaAcs2 [5]", "result": "11 ± 5", "unit": "µM"}, {"measurement": "IC50", "setting": "Ca^CnAcs2", "result": "19 ± 7", "unit": "µM"}]}, {"smiles": "CC(C)OP(=O)(O)OCC1OC(n2cnc3c(N)ncnc32)C(O)C1O", "note": "(stereo not drawn) [isopropyl-AMP ester]", "values": [{"measurement": "inhibition of CnAcs1 (in words)", "setting": "CnAcs1 [1]", "result": "equivalent to that of the cyclopropyl-AMP ester"}]}, {"smiles": "COP(=O)(O)OCC1OC(n2cnc3c(N)ncnc32)C(O)C1O", "note": "(stereo not drawn) [methyl-AMP ester]", "values": [{"measurement": "inhibition of CnAcs1 (in words)", "setting": "CnAcs1 [1]", "result": "completely inactive"}]}, {"smiles": "CCCOP(=O)(O)OC[C@H]1O[C@@H](n2cnc3c(N)ncnc32)[C@H](O)[C@@H]1O", "note": "[propyl]", "values": [{"measurement": "decrease in potency relative to ethyl-AMP", "setting": "CnAcs1 [4]", "result": 3, "unit": "fold"}]}]}
